PMC9415638, “Discovery of novel thiazolyl-pyrazolines as dual EGFR and VEGFR-2 inhibitors endowed with in vitro antitumor activity towards non-small lung cancer” (Journal of Enzyme Inhibition and Medicinal Chemistry, 2022)
Read-outs that look alike come from different tables or passages of the source.

Assays:
[1] = system: WI-38 human lung fibroblast cells; assay: MTT cytotoxicity assay on normal cells; format: cell-based; settings: Homo sapiens, WI-38; normal lung fibroblasts, MTT, 24 h, n = 3; read-out: IC50 (µM) ± SEM WI-38
Description: All chemicals used in this study were analytical or cell-culture grade.
Cytotoxicity was measured using the MTT assay. […] The medium was aspirated and 150 μL DMSO was added to solubilise MTT formazan crystals. The plates were then shaken, and the optical density was determined at 570 nm using an ELISA plate reader (Model 550, Bio-Rad, Hercules, CA). At least three independent experiments were performed.

EGFR = EGFR (Homo sapiens, UniProt P00533); assay: EGFR kinase assay (PGT-coated 96-well plates); format: biochemical; settings: read-out: IC50 (nM) ± SEM EGFR
Description: (§1) The EGFR kinase assay was carried out in 96-well plates coated with PGT (poly l-glutamic acid l-tyrosine, 4:1, Sigma Aldrich, St. Louis, MO) as previously described. IC50 values were calculated using GraphPad Prism 5. Each experiment was carried out at least three times. The VEGFR-2 kinase assay was carried out in 96-well streptavidin coated plate using recombinant human VEGFR-2/KDR ELISA kit according to manufacturer’s instructions.

[2] = target: T1, recombinant human VEGFR-2/KDR (Homo sapiens, UniProt P35968); assay: VEGFR-2 kinase assay (VEGFR-2/KDR ELISA kit); format: biochemical; settings: read-out: IC50 (nM) ± SEM VEGFR-2
T1 construct: purchased
Description: as §1

H441 lung cancer cells = assay: Anti-proliferative MTT assay; settings: for inhibition at 10 µM: read-out: % Growth inhibition ± SEM H441
[3] = system: HCC70 breast cancer cells; assay: Anti-proliferative MTT assay; format: cell-based; settings: Homo sapiens, 24 h, read-out: % Growth inhibition ± SEM HCC70
Description: (§2) To evaluate the anti-proliferative activity of the synthesised thiazolyl-pyrazoline derivatives (7a–7d, 10a–10d, and 13a–13f), a preliminary in vitro one dose (10 µM) anticancer assay was performed. Nine cell lines derived from five tumour subpanels were examined; leukaemia (K562 and KG-1a), breast (MCF-7, BT-549 and HCC70), lung (A549 and H441), colon (HCT116) and liver (HepG2) cancer cell lines. The compounds were added at a single concentration (10 µM) and the cultures were incubated for 24 h, then the per cent growth inhibition (%GI) was calculated.
(§3) Human leukaemia (K562 and KG-1a), breast (MCF-7, BT-549 and HCC70), lung (A549, H441, NCI-H1650 and NCI-H1975), colon (HCT116), liver (HepG2) cancer cell lines and WI-38 human lung fibroblast cell line were obtained from the American Type Culture Collection (ATCC; Manassas, VA) and were cultured in their suitable media containing 10% foetal bovine serum (FBS; Sigma-Aldrich) in a humidified atmosphere with 5% CO2 at 37 °C. Gefitinib and vandetanib were purchased from Sigma-Aldrich. All chemicals used in this study were analytical or cell-culture grade.
(§4) Cytotoxicity was measured using the MTT assay. Human leukaemia (K562 and KG-1a), breast (MCF-7, BT-549 and HCC70), lung (A549, H441, NCI-H1650 and NCI-H1975), colon (HCT116), liver (HepG2) cancer cell lines and WI-38 human lung fibroblast cell line were plated at a density of 1 × 10^4 cells per well in 96-well plates overnight and then treated with the compounds. After 24 h treatment, 20 μL of MTT solution (2 mg/mL in phosphate-buffered saline [PBS]) was added to each well and the cells were cultured for another 4 h at 37 °C. The medium was aspirated and 150 μL DMSO was added to solubilise MTT formazan crystals. The plates were then shaken, and the optical density was determined at 570 nm using an ELISA plate reader (Model 550, Bio-Rad, Hercules, CA). At least three independent experiments were performed. The IC50 values were calculated using GraphPad Prism 5 (Version 5.01, GraphPad Software, San Diego, CA).

[4] = system: HCT116 colon cancer cells; assay: Anti-proliferative MTT assay; format: cell-based; settings: Homo sapiens, HCT-116, 24 h, read-out: % Growth inhibition ± SEM HCT116
Description: as §2, §3, §4

[5] = system: MCF-7 breast cancer cells; assay: Anti-proliferative MTT assay; format: cell-based; settings: Homo sapiens, MCF7, 24 h, read-out: % Growth inhibition ± SEM MCF-7
Description: as §2, §3, §4

[6] = system: BT-549 breast cancer cells; assay: Anti-proliferative MTT assay; format: cell-based; settings: Homo sapiens, 24 h, read-out: % Growth inhibition ± SEM BT-549
Description: as §2, §3, §4

HepG2 liver cancer cells = assay: Anti-proliferative MTT assay; format: cell-based; settings: Homo sapiens, 24 h, read-out: % Growth inhibition ± SEM HepG2
Description: as §2, §3, §4

K562 leukaemia cells = assay: Anti-proliferative MTT assay; format: cell-based; settings: Homo sapiens, 24 h, read-out: % Growth inhibition ± SEM K562
Description: as §2, §3, §4

KG-1a leukaemia cells = assay: Anti-proliferative MTT assay; format: cell-based; settings: Homo sapiens, 24 h, read-out: % Growth inhibition ± SEM KG-1a
Description: as §2, §3, §4

A549 lung cancer cells = assay: Anti-proliferative MTT assay; settings: Homo sapiens, A549, 24 h; for inhibition at 10 µM: read-out: % Growth inhibition ± SEM A549; for IC50: read-out: IC50 (µM) ± SEM A549
[7] = Homo sapiens, NCI-H441, 24 h, read-out: IC50 (µM) ± SEM H441, MTT, 24 h, n = 3

T1 sequence (P35968 20-1356): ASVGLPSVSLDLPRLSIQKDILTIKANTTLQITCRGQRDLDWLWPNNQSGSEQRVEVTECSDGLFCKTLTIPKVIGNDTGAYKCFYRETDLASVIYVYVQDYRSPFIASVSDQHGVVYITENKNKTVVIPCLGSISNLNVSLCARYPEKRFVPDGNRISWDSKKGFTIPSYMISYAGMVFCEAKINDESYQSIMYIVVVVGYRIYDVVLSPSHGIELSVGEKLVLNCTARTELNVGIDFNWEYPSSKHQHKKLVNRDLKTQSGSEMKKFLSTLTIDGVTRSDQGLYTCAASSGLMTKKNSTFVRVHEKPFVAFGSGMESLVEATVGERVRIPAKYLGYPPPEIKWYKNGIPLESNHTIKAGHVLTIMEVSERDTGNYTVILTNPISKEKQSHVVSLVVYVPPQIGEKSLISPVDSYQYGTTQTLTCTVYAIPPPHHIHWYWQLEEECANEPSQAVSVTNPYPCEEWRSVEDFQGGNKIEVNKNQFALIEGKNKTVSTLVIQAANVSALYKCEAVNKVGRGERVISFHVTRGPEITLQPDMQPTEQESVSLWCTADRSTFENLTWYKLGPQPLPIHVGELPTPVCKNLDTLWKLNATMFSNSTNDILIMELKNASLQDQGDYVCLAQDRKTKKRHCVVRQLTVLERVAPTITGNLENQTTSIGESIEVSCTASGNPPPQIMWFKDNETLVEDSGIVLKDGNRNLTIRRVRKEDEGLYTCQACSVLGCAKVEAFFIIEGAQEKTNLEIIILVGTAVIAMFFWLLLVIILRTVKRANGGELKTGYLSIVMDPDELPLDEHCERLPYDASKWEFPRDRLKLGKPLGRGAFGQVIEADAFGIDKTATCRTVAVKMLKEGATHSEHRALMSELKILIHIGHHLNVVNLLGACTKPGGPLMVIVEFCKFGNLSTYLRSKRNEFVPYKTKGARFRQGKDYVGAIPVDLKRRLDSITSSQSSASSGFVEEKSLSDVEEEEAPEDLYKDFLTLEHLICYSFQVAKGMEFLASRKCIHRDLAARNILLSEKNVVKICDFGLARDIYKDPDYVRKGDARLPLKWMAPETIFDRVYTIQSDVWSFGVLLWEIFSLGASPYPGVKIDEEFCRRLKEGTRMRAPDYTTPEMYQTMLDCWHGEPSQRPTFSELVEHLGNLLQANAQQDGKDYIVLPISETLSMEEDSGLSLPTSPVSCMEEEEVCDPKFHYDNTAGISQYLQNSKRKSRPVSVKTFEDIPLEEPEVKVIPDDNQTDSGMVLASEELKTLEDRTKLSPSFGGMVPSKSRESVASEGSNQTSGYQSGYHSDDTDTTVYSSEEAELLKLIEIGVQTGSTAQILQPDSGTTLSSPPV
Sequence of EGFR (P00533 25-1210): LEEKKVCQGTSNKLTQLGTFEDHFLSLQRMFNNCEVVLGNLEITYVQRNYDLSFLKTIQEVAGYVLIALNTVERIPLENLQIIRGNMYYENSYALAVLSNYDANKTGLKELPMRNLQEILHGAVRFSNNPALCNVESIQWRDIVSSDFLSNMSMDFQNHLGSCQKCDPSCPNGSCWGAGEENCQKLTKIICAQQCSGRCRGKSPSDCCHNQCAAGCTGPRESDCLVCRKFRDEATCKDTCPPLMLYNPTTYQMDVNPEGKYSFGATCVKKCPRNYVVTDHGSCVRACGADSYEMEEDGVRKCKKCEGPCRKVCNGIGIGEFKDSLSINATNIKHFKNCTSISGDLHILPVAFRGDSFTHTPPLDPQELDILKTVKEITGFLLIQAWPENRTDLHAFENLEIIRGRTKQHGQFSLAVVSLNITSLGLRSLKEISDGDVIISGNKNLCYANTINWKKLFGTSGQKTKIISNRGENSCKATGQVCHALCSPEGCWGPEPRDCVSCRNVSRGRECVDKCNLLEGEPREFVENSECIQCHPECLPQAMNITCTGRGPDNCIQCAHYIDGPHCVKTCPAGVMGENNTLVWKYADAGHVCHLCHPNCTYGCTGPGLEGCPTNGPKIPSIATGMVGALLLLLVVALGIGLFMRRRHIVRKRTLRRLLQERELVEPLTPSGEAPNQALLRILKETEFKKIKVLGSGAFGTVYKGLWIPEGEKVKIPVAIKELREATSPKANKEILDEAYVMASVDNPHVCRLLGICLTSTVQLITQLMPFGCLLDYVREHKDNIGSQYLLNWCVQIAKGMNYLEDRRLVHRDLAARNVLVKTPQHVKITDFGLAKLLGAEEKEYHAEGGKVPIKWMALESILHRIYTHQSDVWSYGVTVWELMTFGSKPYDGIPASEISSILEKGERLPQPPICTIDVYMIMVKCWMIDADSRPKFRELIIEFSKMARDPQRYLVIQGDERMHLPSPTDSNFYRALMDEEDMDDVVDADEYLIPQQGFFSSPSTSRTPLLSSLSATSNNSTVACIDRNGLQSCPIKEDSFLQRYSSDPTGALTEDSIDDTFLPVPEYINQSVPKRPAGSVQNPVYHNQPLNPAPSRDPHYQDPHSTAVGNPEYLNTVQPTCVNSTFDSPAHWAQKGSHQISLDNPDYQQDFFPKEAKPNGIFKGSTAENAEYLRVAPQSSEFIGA

IC50 (EGFR) [nM] | IC50 [2] [nM] | IC50 (H441 lung cancer cells; [7]) [µM] | IC50 (A549 lung cancer cells) [µM] | melting point [°C] | IC50 (H441 lung cancer cells; read-out: IC50 (µM) ± SEM H441, MTT, 24 h, n = 3) [µM] | Compound | IC50 [1] [µM] | inhibition at 10 µM (H441 lung cancer cells; Homo sapiens, NCI-H441, 24 h) [%] | inhibition at 10 µM [3] [%] | inhibition at 10 µM [4] [%] | inhibition at 10 µM [5] [%] | inhibition at 10 µM [6] [%] | inhibition at 10 µM (HepG2 liver cancer cells) [%] | inhibition at 10 µM (K562 leukaemia cells) [%] | inhibition at 10 µM (KG-1a leukaemia cells) [%] | inhibition at 10 µM (A549 lung cancer cells) [%]
145 ± 2 | 125 ± 1.4 | 38.4 ± 2.3 | 22.5 ± 1.2 | 72 to 75 |  | COc1ccc(C2CC(c3ccc(Cl)cc3Cl)=NN2c2nc(-c3ccccc3)cs2)cc1 (stereo not shown) [Compound 7a, 2-(3-(2,4-Dichlorophenyl)-5-(4-methoxyphenyl)-4,5-dihydro-1H-pyrazol-1-yl)-4-phenylthiazole] | 88.2 ± 4.2 | 36.1 ± 2.1 | 27.3 ± 1 | 0.5 ± 0.1 | 0.07 | 26.4 ± 3.6 | 0.5 | 14.2 ± 2.1 | 18.4 ± 1.3 | 34.9 ± 4.3
114.2 ± 0.4 | 195 ± 4.6 | 26.5 ± 1.1 | 12 ± 0.4 | 140 to 141 |  | COc1ccc(C2CC(c3ccc(Cl)cc3Cl)=NN2c2nc(-c3ccc(Cl)cc3)cs2)cc1 (stereo not shown) [Compound 7b, 4-(4-Chlorophenyl)-2-(3-(2,4-dichlorophenyl)-5-(4-methoxyphenyl)-4,5-dihydro-1H-pyrazol-1-yl)thiazole] | 60.6 ± 3.1 | 35.2 ± 1.2 | 19.6 ± 0.3 | 18.8 ± 1.9 | 25.9 ± 1.2 | 5.2 ± 1 | 34.4 ± 1.4 | 21.5 ± 3 | 21.7 ± 4.6 | 45.2 ± 2.9
511.2 ± 3.2 | 915.2 ± 4.3 | > 100 | > 100 | 120 to 122 |  | COc1ccc(C2CC(c3ccc(Cl)cc3Cl)=NN2c2nc(-c3ccccc3)cs2)cc1OC (stereo not shown) [Compound 7c, 2-(3-(2,4-Dichlorophenyl)-5-(3,4-dimethoxyphenyl)-4,5-dihydro-1H-pyrazol-1-yl)-4-phenylthiazole] | > 100 | 16.2 ± 0.3 | 7.3 ± 1.2 | 4.9 ± 0.8 | 9.2 ± 0.9 | 3.1 ± 0.6 | 17.1 ± 2.7 | 5.2 ± 0.5 | 4.3 ± 0.7 | 8.9 ± 1.1
132.9 ± 1.2 | 186 ± 2.3 | 29.1 ± 3.5 | 20.2 ± 2 | 158 to 159 |  | COc1ccc(C2CC(c3ccc(Cl)cc3Cl)=NN2c2nc(-c3ccc(Cl)cc3)cs2)cc1OC (stereo not shown) [Compound 7d, 4-(4-Chlorophenyl)-2-(3-(2,4-dichlorophenyl)-5-(3,4-dimethoxyphenyl)-4,5-dihydro-1H-pyrazol-1-yl)thiazole] | 40.1 ± 2.7 | 34.8 ± 2.4 | 17.3 ± 0.6 | 0.7 | 2.2 ± 0.6 | 18 ± 2.7 | 5.1 ± 1 | 22 ± 1.6 | 25.1 ± 2 | 31.2 ± 1.4
274 ± 2.3 | 450 ± 8.3 | > 100 | 49.1 ± 3.2 | 205 to 207 |  | COc1ccc(C2CC(c3ccc(Cl)cc3Cl)=NN2c2nc(C)c(C(C)=O)s2)cc1 (stereo not shown) [Compound 10a, 1-(2-(3-(2,4-Dichlorophenyl)-5-(4-methoxyphenyl)-4,5-dihydro-1H-pyrazol-1-yl)-4-methylthiazol-5-yl)ethan-1-one] | > 100 | 6.3 ± 0.7 | 24.3 ± 2.5 | 19 ± 2.6 | 13.6 ± 2.9 | 9.4 ± 1 | 28 ± 4.3 | 12.2 ± 1.9 | 22.2 ± 1.6 | 32.3 ± 2.2
130.7 ± 1.1 | 102 ± 4.3 | 45.2 ± 2.3 | 23.5 ± 1.3 | 195 to 197 |  | COc1ccc(C2CC(c3ccc(Cl)cc3Cl)=NN2c2nc(C)c(C(=O)Nc3ccccc3)s2)cc1 (stereo not shown) [Compound 10c, 2-(3-(2,4-Dichlorophenyl)-5-(4-methoxyphenyl)-4,5-dihydro-1H-pyrazol-1-yl)-4-methyl-N-phenylthiazole-5-carboxamide] | > 100 | 8.7 ± 0.1 | 18.3 ± 1.6 | 7.9 ± 1.1 | 2.5 ± 0.8 | 22.3 ± 0.8 | 11.9 ± 1.1 | 11.2 ± 1 | 9.1 ± 1 | 28.9 ± 2
973 ± 2 | 1151 ± 4.3 | > 100 | > 100 | 168 to 170 | 94.4 ± 5.5 | COc1ccc(C2CC(c3ccc(Cl)cc3Cl)=NN2c2nc(C)c(N=Nc3ccccc3)s2)cc1 (stereo not shown) [Compound 13a, 2-(3-(2,4-Dichlorophenyl)-5-(4-methoxyphenyl)-4,5-dihydro-1H-pyrazol-1-yl)-4-methyl-5-(phenyldiazenyl)thiazole] | > 100 | 22.2 ± 0.9 | 15.3 ± 1.4 | 19.5 ± 1.4 | 17.8 ± 1 | 10.3 ± 1.1 | 15.8 ± 2.2 | 2.2 ± 0.2 | 4.1 ± 0.9 | 11 ± 0.8
179 | 214 ± 4 | 24.2 ± 1.8 | 59.1 ± 3.2 | 170 to 171 |  | COc1ccc(C2CC(c3ccc(Cl)cc3Cl)=NN2c2nc(C)c(N=Nc3ccc(C)cc3)s2)cc1 (stereo not shown) [Compound 13b, 2-(3-(2,4-Dichlorophenyl)-5-(4-methoxyphenyl)-4,5-dihydro-1H-pyrazol-1-yl)-4-methyl-5-(p-tolyldiazenyl)thiazole] | > 100 | 23.3 ± 2.4 | 8.3 ± 0.9 | 0.8 ± 0.2 | 3.4 ± 0.5 | 5.1 ± 0.3 | 0.08 | 11 ± 0.6 | 7.1 ± 0.2 | 16.2 ± 1.3
 |  | 3.9 ± 0.8 | 3.4 ± 1 |  |  | COc1cc2c(Nc3ccc(Br)cc3F)ncnc2cc1OCC1CCN(C)CC1 [Vandetanib, reference compound] | 8.6 ± 0.4 |  |  |  |  |  |  |  |  | 
